Results published in publication PMC12470154, “In Vitro Evaluation of Antimicrobial Amyloidogenic Peptides for the Treatment of Early and Mature Bacterial Biofilms” (International Journal of Molecular Sciences, 2025).

Assays:
S. aureus (129B strain) [1] = experiment: Mature biofilms, MTT assay; format: cell-based, Staphylococcus aureus; design: key: ↓: Decrease in the parameter (optical density) compared to the negative control; −: No decrease in the parameter; ↑: Reverse effect (increase in the optical density compared to the control); details: mature biofilm: peptide added after 24 h, further 24 h; 0.01-10 mg/mL
Protocol: (§1) After 24 h of incubation, the medium was removed. To assess the total biofilm biomass, the wells were rinsed with sterile PBS solution and stained with 0.1% crystal violet. The dye bound to the surface was then removed using 95% ethanol. To assess the presence of metabolically active cells, 0.3% MTT (PanEco Ltd., Moscow, Russia) solution was added to each well, and the plates were incubated at 37 °C for 2 h. After incubation, the MTT solution was removed, 150 µL of DMSO (Chimmed, Moscow, Russia) and 25 µL of glycine buffer were added to each well, and the plates were left at room temperature for 15 min. The resulting solutions were transferred to a flat-bottom 96-well plate, and optical density was measured at 595 nm.
(§2) A stationary-phase culture of the tested strain was diluted 100-fold in fresh medium (200 µL per well) and added to the wells of a 96-well round-bottom plate. […] After another 24 h, the medium was removed and the wells were rinsed with sterile PBS to eliminate planktonic cells. The procedures for assessing total biofilm biomass and cell metabolic activity using crystal violet and MTT assays were performed in the same manner as described above for early-stage biofilm experiments.

S. aureus (129B strain) [2] = experiment: Mature biofilms, MTT assay; format: cell-based, Staphylococcus aureus; details: mature biofilm
Protocol: as §1, §2

MRSA (SA 180-F strain) [3] = experiment: Early biofilm formation, crystal violet staining; format: cell-based, methicillin-resistant Staphylococcus aureus; design: key: ↓: Decrease in the parameter (optical density) compared to the negative control; −: No decrease in the optical density; ↑: Reverse effect (increase in the optical density compared to the control); details: peptide present from inoculation, 24 h, OD 595 nm
Protocol: as §1

S. aureus (129B strain) [4] = experiment: Mature biofilms, crystal violet staining; format: cell-based, Staphylococcus aureus; design: key: ↓: Decrease in the parameter (optical density) compared to the negative control; −: No decrease in the optical density; ↑: Reverse effect (increase in the optical density compared to the control); details: mature biofilm: peptide added after 24 h, further 24 h; 0.01-10 mg/mL
Protocol: as §1, §2

MRSA (SA 180-F strain) [5] = experiment: Mature biofilms, MTT assay; format: cell-based, methicillin-resistant Staphylococcus aureus; design: key: ↓: Decrease in the parameter (optical density) compared to the negative control; −: No decrease in the optical density; ↑: Reverse effect (increase in the optical density compared to the control); details: mature biofilm: peptide added after 24 h, further 24 h; 0.01-10 mg/mL
Protocol: as §1, §2

Row | Sequence | change of optical density after MTT assay vs negative control (S. aureus (129B strain) [1]) | metabolic activity of cells within mature biofilms (MTT) (S. aureus (129B strain) [2]; 0.01, 0.1, 1, and 10 mg/mL) | concentration given with ↓ (MTT) (S. aureus (129B strain) [2]) [mg/mL] | change of optical density after crystal violet staining vs negative control (MRSA (SA 180-F strain) [3]) | change of optical density after crystal violet staining vs negative control (S. aureus (129B strain) [4]) | change of optical density after MTT assay vs negative control (MRSA (SA 180-F strain) [5])
1 | ITDFGIFIGLGGGGSRQIKIWFQNRRMKWKK [I31K^P] | ↓ (0.01 mg/mL) | decreased the metabolic activity | 0.01 | − |  | 
2 | RKKRRQRRRGGGGVTDFGVFVEI [R23I^T, TAT cell-penetrating peptide linked via glycine linker to amyloidogenic fragment of S1 ribosomal protein of T. thermophilus] |  |  |  | − | − | −
